Measurements published in patent US20250066735A1, “PREPARATION METHOD OF MESENCHYMAL STEM CELL (MSC) AND APPLICATION THEREOF IN KNEE PRODUCT” (GUANGDONG CELL BIOTECHNOLOGY CO. LTD, priority 2024, published 2025).

System: human bone marrow-derived MSCs
Experiment: Trypan blue survival rate of MSCs pre-cultivated with additive medium, after H2O2 challenge
Format: cell-based
Details: for Cell survival rate-improving effect (in words): compared among additive compositions, H2O2 challenge; for Cell survival rate: third-generation MSCs cultivated with medium additive, then low-sugar DMEM with 100 mM H2O2 for 1 h, Trypan blue
Method: (1) Isolation of bone marrow-derived MSCs from a bone marrow: 20 mL to 40 mL of a human bone marrow was extracted and added to a sterile glass bottle with 3,000 U heparin, and the human bone marrow and the heparin were fully mixed for anticoagulation. Normal saline was added at the same amount as the human bone marrow to the sterile glass bottle, and mixing was conducted thoroughly to obtain diluted human bone marrow. The diluted human bone marrow was added slowly to a Ficoll liquid level with 1 part by volume of a lymphocyte separation solution (Ficoll separation solution) per 2 parts by volume of the diluted human bone marrow to obtain a mixed system. The mixed system was centrifuged at 2,000 r/min and 20° C. in a horizontal centrifuge for 25 min, and bone marrow-derived MSCs were collected from an interface, washed with normal saline 2 to 3 times, suspended with an appropriate amount of a culture medium, and counted.
(2) Primary cultivation of the bone marrow-derived MSCs: The bone marrow-derived MSCs obtained in the step (1) were inoculated at a density of 0.3×10^6/mL in a basal medium, and the primary cultivation was conducted. The basal medium is Dulbecco's Modified Eagle Medium (DMEM, GIBCO company, America). During the primary cultivation, the medium was changed every 2 d to remove non-adherent cells and continuously purify the human bone marrow-derived MSCs. When a cell density reached 80%, the sub-cultivation was conducted. For an experimental group, an additive composition of NOG and quercetin was added to the basal medium to prepare an experimental medium.
The sub-cultivation was conducted until third-generation human bone marrow-derived MSCs were obtained. The third-generation human bone marrow-derived MSCs were further cultivated with the experimental medium for cell transplantation.
(3) A survival rate of the human bone marrow-derived MSCs was detected with Trypan blue. The human bone marrow-derived MSCs obtained in the step (2) (cells cultivated without NOG and quercetin were adopted as a control group) were transferred to a low-sugar DMEM including 100 mM hydrogen peroxide (H2O2), cultivated for 1 h, stained with Trypan blue, and observed under a microscope to count a cell survival rate.

Row | Compound | Cell survival rate-improving effect (in words) | Cell survival rate
1 | O=c1c(O)c(-c2ccc(O)c(O)c2)oc2cc(O)cc(O)c12 [compound 1, quercetin] | inferior cell survival rate-improving effect | 50.2 ± 0.7%
2 | O=C(O)CNC(=O)C(=O)O [compound 2, N-oxalylglycine] | inferior cell survival rate-improving effect | 52.3 ± 0.8%
